According to patent US20210219549A1 (priority 2018, published 2021):
Read-outs that look alike come from different tables or passages of the source.

How the values were obtained:
[1] = tested on: Xylella fastidiosa strain Temecula-1 (PDT); assay: microbe, parasite or virus in culture; assay type: cell-based; conditions: for inhibition at 25 µM / inhibition at 50 µM: Xylella fastidiosa; for inhibition at 50 µM: 48 h, read-out: growth inhibition of Temecula1, 50 μM, 48 hrs, relative to untreated control; for inhibition at 25 µM / inhibition: 25 uM
[2] = tested on: X. fastidiosa Temecula 1 in V. vinifera cv. Carignane; assay type: in vivo, Vitis vinifera; conditions: for leaves with PD symptoms: at the end of 3 months, untreated nearly 100%; for progression of PD symptoms: in vivo
[3] = tested on: grapevine leaves (V. vinifera cv. Carignane)
[4] = tested on: grapevine leaves (V. vinifera cv. Carignane); assay: Leaf disc phytotoxicity, chlorophyll loss
grapevines = assay: Visible phytotoxicity in greenhouse after foliar spray or soil drench
[5] = tested on: Xf PD strain in V. vinifera grapevines; design: species or system Vitis vinifera; conditions: in vivo
[6] = tested on: Ca. Liberibacter asiaticus (Las); assay type: in vivo, C. sinensis; conditions: soil drench 1 g/tree, Hamlins, as early as 20 days post treatment
[7] = tested on: Ca. Liberibacter asiaticus (Las); assay type: in vivo, C. paradisi; conditions: soil drench 15 g/tree, grapefruits, as early as 20 days post treatment

CC(Cc1ccc(O)c(O)c1)C(C)Cc1ccc(O)c(O)c1 (centres unmarked) [4,4′-(2,3 dimethyltetramethylene) dipyrocatechol]
inhibition at 25 µM [1]: 100% | inhibition at 50 µM [1]: > 90%

COc1ccc2[nH]c3c(C)c4ccncc4c(C)c3c2c1 [9-methoxyellipticine]
inhibition [1]: 100%

CC(C)(C)CC(C)(C)c1ccc(OCCOCC[N+](C)(C)Cc2ccccc2)cc1 [Benzethonium chloride]
leaves with PD symptoms [2]: ~50% | progression of PD symptoms [2]: significantly reduced as well as delayed progression of PD symptoms | loss in chlorophyll content [3]: increasingly significant loss in chlorophyll content | phytotoxicity in the chlorophyll degradation assay ([4]; 25 mM): no appreciable phytotoxicity | visible phytotoxicity (grapevines; foliar sprays): not evident | visible phytotoxicity (grapevines; soil drench): not evident

CC(=O)Oc1ccccc1C(=O)Nc1ncc([N+](=O)[O-])s1 [Nitazoxanide]
inhibition at 25 µM [1]: 100%

Cc1cc2c(C(C)C)c(O)c(O)c(C=O)c2c(O)c1-c1c(C)cc2c(C(C)C)c(O)c(O)c(C=O)c2c1O [gossypol]
inhibition at 50 µM [1]: > 90%

CC1=CC(=O)c2ccccc2C1=O [menadione, 2-methyl-1,4-naphthoquinone]
inhibition at 25 µM [1]: 100% | inhibition at 50 µM [1]: > 90% | leaves with PD symptoms [2]: ~50% | progression of PD symptoms [2]: significantly reduced as well as delayed progression of PD symptoms | control of the progression of PD in field conditions [5]: Effective | Las metabolic activity (peroxidase gene expression relative to EF1 alpha) [6]: measureable suppression of Las metabolic activity | Las metabolic activity (peroxidase gene expression relative to EF1 alpha) [7]: measureable suppression of Las metabolic activity | loss in total chlorophyll content ([4]; grapevine leaf discs, within 48 hours, all concentrations tested (as low as 25 mM), vs water-treated control): ~40% | visible phytotoxicity (grapevines; foliar sprays): sporadic patches of purple pigmentation and necrosis | visible phytotoxicity (grapevines; soil drench): not evident

Cc1nccc2c(C)c3[nH]c4ccccc4c3cc12 [olivacine]
inhibition [1]: 100%

Cc1cc2nc3c(=O)[nH]c(=O)nc-3n(C[C@H](O)[C@H](O)[C@H](O)CO)c2cc1N(C)C [roseoflavin]
inhibition [1]: 100%
